ChEMBL document CHEMBL1201862, “PubChem BioAssay data set” (2004)
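How tested: cells in 96-well plates exposed to compound for 48 hours at five concentrations. At the GI50, growth is halved.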 Calls of active or inactive are those of the source. Cut-off read from the data, not from the text of the source: active = GI50 up to about 1.1 µM and inactive = higher.

Legend:
Experiment in all cases: NCI-60 cell line screen, 48 h
TK-10 = tested on: TK-10
HOP-62 = tested on: HOP-62
786-0 = tested on: 786-0
COLO 205 = tested on: COLO 205
OVCAR-8 = tested on: OVCAR-8
NCI-H226 = tested on: NCI-H226
SK-OV-3 = tested on: SK-OV-3
BT-549 = tested on: BT-549
SNB-75 = tested on: SNB-75
M14 = tested on: M14
NCI-H522 = tested on: NCI-H522
RPMI-8226 = tested on: RPMI-8226
UACC-257 = tested on: UACC-257
SNB-19 = tested on: SNB-19
UO-31 = tested on: UO-31
HOP-92 = tested on: HOP-92
CAKI-1 = tested on: CAKI-1
IGROV-1 = tested on: IGROV-1
NCI/ADR-RES = tested on: NCI/ADR-RES
SF-539 = tested on: SF-539
CCRF-CEM = tested on: CCRF-CEM
MCF7 = tested on: MCF7
UACC-62 = tested on: UACC-62
Malme-3M = tested on: Malme-3M
LOX IMVI = tested on: LOX IMVI
Hs-578T = tested on: Hs-578T
A549 = tested on: A549
K562 = tested on: K562
U-251 = tested on: U-251
PC-3 = tested on: PC-3
MDA-MB-435 = tested on: MDA-MB-435
HCT-15 = tested on: HCT-15
HL-60 = tested on: HL-60
RXF 393 = tested on: RXF 393
SK-MEL-28 = tested on: SK-MEL-28
SN12C = tested on: SN12C
HCT-116 = tested on: HCT-116
HT-29 = tested on: HT-29
MOLT-4 = tested on: MOLT-4
SF-268 = tested on: SF-268
SK-MEL-2 = tested on: SK-MEL-2
SK-MEL-5 = tested on: SK-MEL-5
NCI-H23 = tested on: NCI-H23
KM12 = tested on: KM12
SW-620 = tested on: SW-620
DU-145 = tested on: DU-145
SF-295 = tested on: SF-295
EKVX = tested on: EKVX
OVCAR-5 = tested on: OVCAR-5
OVCAR-3 = tested on: OVCAR-3
MDA-MB-231 = tested on: MDA-MB-231
OVCAR-4 = tested on: OVCAR-4

NS(=O)(=O)c1nnc(NC(=S)NC(=O)Nc2ccc(Cl)c(Cl)c2)s1
GI50 (TK-10): 34.9 µM (inactive) | GI50 (HOP-62): 22.8 µM (inactive) | GI50 (786-0): 28.3 µM (inactive) | GI50 (COLO 205): 19.5 µM (inactive) | GI50 (OVCAR-8): 22.1 µM (inactive) | GI50 (NCI-H226): 23.9 µM (inactive) | GI50 (SK-OV-3): 20.7 µM (inactive) | GI50 (BT-549): 21.3 µM (inactive) | GI50 (SNB-75): 17.4 µM (inactive) | GI50 (M14): 17.9 µM (inactive) | GI50 (NCI-H522): 14.8 µM (inactive) | GI50 (RPMI-8226): 25.8 µM (inactive) | GI50 (UACC-257): 23.1 µM (inactive) | GI50 (SNB-19): 28.3 µM (inactive) | GI50 (UO-31): 20.6 µM (inactive) | GI50 (HOP-92): 13.5 µM (inactive) | GI50 (CAKI-1): 23.4 µM (inactive) | GI50 (IGROV-1): 17.2 µM (inactive) | GI50 (NCI/ADR-RES): 25.4 µM (inactive) | GI50 (SF-539): 2.39 µM (inactive) | GI50 (CCRF-CEM): 28.1 µM (inactive) | GI50 (MCF7): 38 µM (inactive) | GI50 (UACC-62): 17.5 µM (inactive) | GI50 (Malme-3M): 22.6 µM (inactive) | GI50 (LOX IMVI): 17.1 µM (inactive) | GI50 (Hs-578T): 24.3 µM (inactive) | GI50 (A549): 32 µM (inactive) | GI50 (K562): 30.4 µM (inactive) | GI50 (U-251): 36.3 µM (inactive) | GI50 (PC-3): 27.3 µM (inactive) | GI50 (MDA-MB-435): 19.4 µM (inactive) | GI50 (HCT-15): 19.7 µM | GI50 (HL-60): 26.9 µM (inactive) | GI50 (RXF 393): 19.1 µM (inactive) | GI50 (SK-MEL-28): 37.1 µM (inactive) | GI50 (SN12C): 26.7 µM (inactive) | GI50 (HCT-116): 16.9 µM (inactive) | GI50 (HT-29): 25.5 µM (inactive) | GI50 (MOLT-4): 29 µM (inactive) | GI50 (SF-268): 27.5 µM (inactive) | GI50 (SK-MEL-2): 31.8 µM (inactive) | GI50 (SK-MEL-5): 21.2 µM (inactive) | GI50 (NCI-H23): 18.1 µM (inactive) | GI50 (KM12): 18.7 µM (inactive) | GI50 (SW-620): 22.5 µM (inactive) | GI50 (DU-145): 20.8 µM (inactive) | GI50 (SF-295): 21.2 µM (inactive) | GI50 (EKVX): 26.3 µM (inactive) | GI50 (OVCAR-5): 25.1 µM (inactive) | GI50 (OVCAR-3): 20.8 µM (inactive) | GI50 (MDA-MB-231): 30.4 µM (inactive) | GI50 (OVCAR-4): 19.5 µM (inactive)
